Results taken from patent publication US5126057A, “Disinfecting with N,N'-dihaloimidazolidin-4-ones” (Auburn Research Foundation, priority 1991, dated 1992).
In brackets after ≈: the same amount, converted by molar mass. One block for each compound: values may come before it.

Tests used:
Assay type in all cases: physicochemical
[1] = physchem; conditions: for solubility: water, solubility in water
Protocol: In method (a) 47.4 grams (0.3 mole) of 2,2,5,5-tetramethylimidazolidine-4-thione was dissolved in 1.2 liters of 3 Normal sodium hydroxide solution (3.6 moles) in a 2 liter flask. The flask and its contents were cooled to 5° C. using an ice bath, and chlorine gas was bubbled into the mixture while stirring until the pH of the solution reached 7.0. The temperature of the mixture was not allowed to rise above 10° C. during this process. The N,N'-dichloroimidazolidin-4-one product precipitated as a white solid. Following addition of 800 milliliters of water to the flask, the solid product was recovered by suction filtration. The product was then purified by dissolving it in hexane, allowing the impurities and remaining water to settle, and recovery by evaporation of the volatile hexane layer which was separated from the impurity/water layer. The product yield was 53.9 grams or 85% of that theoretically expected. Elemental analysis of the product (1,3-dichloro-2,2,5,5-tetramethylimidazolidin-4-one) gave the following results: (calculated/found) % carbon 39.82/39.86, % hydrogen 5.73/5.50, % nitrogen 13.27/13.24, and % chlorine 33.59/32.88. […] Analysis of the product by proton NMR and infrared spectroscopy yielded the following results:
5.1 Grams (0.036 mole) of 2,2,5,5-tetramethylimidazolidin-4-one prepared as in example 2 was dissolved in 88 milliliters of 1 Normal sodium hydroxide solution (0.088 mole) in a 250 milliliter flask. While maintaining this mixture at 10° C. or below using an ice bath and stirring, 12.8 grams (0.08 mole) of liquid bromine was added dropwise. The product 1,3-dibromo-2,2,5,5-tetramethylimidazolidin-4-one precipitated from the mixture as a pale yellow solid. The product was recovered by suction filtration and purified by recrystallization from hexane. The product yield was 9.2 grams or 85% of that theoretically expected. Elemental analysis of the product (1,3-dibromo-2,2,5,5-tetramethylimidazolidin-4-one) gave the following results: (calculated/found) % carbon 28.00/27.80, % hydrogen 4.00/4.07, % nitrogen 9.33/9.39, and % bromine 53.33/52.09. […] Analysis of the product by proton NMR and infrared spectroscopy yielded the following results:
6.4 Grams (0.045 mole) of 2,2,5,5-tetramethylimidazolidin-4-one prepared as in example 2 was dissolved in 55 milliliters of 1 Normal sodium hydroxide solution (0.055 mole) in a 250 milliliter flask. While maintaining the reaction mixture at a temperature of 5°-10° C. by use of an ice bath and stirring, 4.0 grams (0.025 mole) of liquid bromine was added dropwise. The reaction mixture was stirred at ice bath temperature for an additional 1 hour and then for 1-2 hours at cold water bath conditions (10°-20° C.). Following cooling the mixture below 10° C. again, 50 milliliters of 1 Normal sodium hydroxide solution (0.05 mole) was added, and chlorine gas was bubbled in while stirring at 5°-10° C. until the pH reached 6-7. The 1-bromo-3-chloro-2,2,5,5-tetramethylimidazolidin-4-one product precipitated as a white solid. The product was recovered by suction filtration and purified by recrystallization from hexane. The product yield was 11.2 grams or 97% of that theoretically expected. Elemental analysis of the product gave the following results: (calculated/found) % carbon 32.88/32.68, % hydrogen 4.70/4.74, % nitrogen 10.96/10.83, % bromine 31.31/33.37, % chlorine 13.89/12.67. The rather high and low found values as compared to the theoretical values for bromine and chlorine, respectively, indicate that the product was contaminated with a small amount of 1,3-dibromo-2,2,5,5-tetramethylimidazolidin-4-one. […] Analysis of the product by proton NMR and infrared spectroscopy yielded the following results: […]

[2] = Hydrolysis equilibrium constant in demand-free water; conditions: pH 7.0, 24°±1° C.
Protocol: The equilibrium constant for the hydrolysis reaction of 1,3-dichloro-2,2,5,5-tetramethylimidazolidin-4-one to form 1-chloro-2,2,5,5-tetramethylimidazolidin-4-one and free chlorine (Cl^+) was determined at pH 7.0 and 24°±1° C. This was accomplished by preparing a solution of the 1,3-dichloro-2,2,5,5-tetramethylimidazolidin-4-one in demand-free 0.05 molar sodium phosphate buffer (pH 7.0) and allowing the solution to equilibrate while stirring for 1 hour. Then the DPD/FAS technique (as in example 7) was used to determine the free and total chlorine concentrations in the equilibrated solution. The concentration of combined 1,3-dichloro-2,2,5,5-tetramethylimidazolidin-4-one was calculated from the difference between the measured total and free chlorine concentrations. The hydrolysis equilibrium constant was then calculated as the square of the molar free chlorine concentration divided by the molar combined chlorine concentration. For a starting molar total chlorine concentration of 4.441×10^-3 moles per liter, at equilibrium the combined chlorine concentration was 4.428×10^-3 moles per liter, and the free chlorine concentration was 1.269×10^-5 moles per liter. […] For a starting molar total chlorine concentration of 1.764×10^-3 moles per liter, at equilibrium the combined chlorine concentration was 1.759×10^-3 moles per liter, and the free chlorine concentration was 5.360×10^-6 moles per liter. […] The average equilibrium constant for the two separate determinations was thus 2.6±1.0×10^-8.

[3] = Laboratory stability in halogen demand-free water (DFW), iodometric titration; conditions: for Percent Chlorine Remaining: DFW, 22° C.
Protocol: The stability of 1,3-dichloro-2,2,5,5-tetramethylimidazolidin-4-one (Compound 1) in halogen demand-free water was determined at 22° C. and pH values of 4.5, 7.0, and 9.5, and the results were compared to those for free chlorine as supplied by calcium hypochlorite. The demand-free water (DFW) was prepared by chlorination of distilled, deionized water buffered to the appropriate pH followed by dechlorination (of the excess free chlorine) by exposure to direct sunlight until no free chlorine remained. This treatment insured that all halogen demand in the water was neutralized. Then Compound 1 and calcium hypochlorite were separately dissolved in identical DFW (buffered to an appropriate pH) solutions to the same final total chlorine concentrations (10 milligrams per liter potential positive chlorine). The solutions in separate flasks, which were stoppered with porous, sterile cotton plugs to allow free exchange with laboratory air, were then held at a constant temperature of 22° C. by means of a controlled water bath for a period of several weeks. Aliquots were withdrawn periodically (at least weekly), and the total positive chlorine remaining was determined in triplicate by standard iodometric titration. […]
The stabilities of 1,3-dibromo-2,2,5,5-tetramethylimidazolidin-4-one (Compound 4) and 1-bromo-3-chloro-2,2,5,5-tetramethylimidazolidin-4-one (Compound 5) in halogen demand-free water (DFW) were determined at 22° C. and pH values of 7.0 and 9.5 using the same procedures as discussed under example 9. Given the instability of Compound 1 at pH 4.5 (example 9), it was deemed unnecessary to test compounds 4 and 5 at that pH. The two compounds were dissolved in DFW buffered to the appropriate pH in separate flasks and held at a temperature of 22° C. by means of a constant temperature bath. The starting concentrations of total potential positive halogen in the two solutions were 22.6 milligrams per liter for Compound 4 and 16.25 milligrams per liter for Compound 5; these concentrations represent the molar equivalents in total potential positive halogen to that used for Compound 1 in example 9. The solutions were analyzed in the manner described in example 9.

[4] = Stability in demand-free water exposed to direct sunlight; conditions: DFW, direct sunlight, 22-24° C.
Protocol: The stabilities of compounds 1,5, and free chlorine from calcium hypochlorite (Compound 2) in water exposed to direct sunlight were determined. Each compound at the 10 milligrams per liter total chlorine concentration level (or at the molar equivalent for total halogen for Compound 5) was dissolved in 85 milliliters of demand-free water buffered at pH 7.0 in separate 100 milliliter beakers which were placed in a temperature-controlled water bath (22°-24° C.), and the bath containing the solutions was placed on the roof of the chemistry building at Auburn University exposed to direct sunlight during August 1988. Total potential positive halogen assays were made periodically on aliquots withdrawn over a 10 hour period using the standard iodometric titration technique.

[5] = Stability in synthetic halogen demand water (SDW); conditions: SDW, 4° C.
Protocol: A synthetic halogen demand water (SDW) was prepared by mixing the following substances with demand-free water (DFW): 375 milligrams per liter of each of the inorganic salts sodium chloride, potassium chloride, calcium chloride, and magnesium chloride; 50 milligrams per liter of Bentonite clay; 30 milligrams per liter of humic acid; 0.01 percent final concentration of heat-treated horse serum; and 5×10^5 cells per milliliter of heat-killed Saccharomyces cerevisiae yeast cells. The SDW solution was buffered with 0.01 Molar borate/sodium hydroxide to a pH of 9.5 and held at 4° C. during the experiments. The conditions of high ionic strength, turbidity, and organic material, and alkaline pH at low temperature, are viewed as a worst-case scenario for disinfection applications and thus should provide the optimum test of stability for the new compounds.
In separate flasks were dissolved compounds 1, 2, 3, and 5 to a starting concentration of 10 milligrams per liter total potential positive chlorine or its molar equivalent (16.25 milligrams per liter) in total potential positive halogen for Compound 5. Aliquots were withdrawn frequently over a period of more than 90 hours, and the percent positive halogen remaining was determined by standard iodometric titration.

[6] = starting total chlorine 1.764×10^-3 moles per liter
[7] = starting total chlorine 4.441×10^-3 moles per liter

SMILES: CC1(C)C(=O)N(Cl)C(C)(C)N1Cl [1,3-dichloro-2,2,5,5-tetramethylimidazolidin-4-one]
solubility in water [1]: 0.224 grams in 100 milliliters of water
solubility [1]: 1.38 mg/mL (≈ 6.54 mM)
average hydrolysis equilibrium constant ([2]; average of two determinations): 2.6±1.0×10^-8
combined chlorine concentration at equilibrium [2, 6]: 1.759×10^-3 moles per liter
free chlorine concentration at equilibrium [2, 6]: 5.360×10^-6 moles per liter
hydrolysis equilibrium constant [2, 6]: 1.63×10^-8
combined chlorine concentration at equilibrium [2, 7]: 4.428×10^-3 moles per liter
free chlorine concentration at equilibrium [2, 7]: 1.269×10^-5 moles per liter
hydrolysis equilibrium constant [2, 7]: 3.64×10^-8

SMILES: [Ca+2].[O-]Cl.[O-]Cl [Compound 2, calcium hypochlorite, reference compound]
Percent Chlorine Remaining ([3]; pH 4.5 (acetate), 1 week, 10080 min): 91.8%
Percent Chlorine Remaining ([3]; pH 4.5 (acetate), 2 weeks, 20160 min): 86.2%
Percent Chlorine Remaining ([3]; pH 4.5 (acetate), 3 weeks, 30240 min): 80.8%
Percent Chlorine Remaining ([3]; pH 4.5 (acetate), 4 weeks, 40320 min): 76.4%
Percent Chlorine Remaining ([3]; pH 4.5 (acetate), 5 weeks, 50400 min): 71.5%
Percent Chlorine Remaining ([3]; pH 4.5 (acetate), 6.14 weeks, 61891.2 min): 65.0%
Percent Chlorine Remaining ([3]; pH 7.0 (phosphate), 1 week, 10080 min): 91.8%
Percent Chlorine Remaining ([3]; pH 7.0 (phosphate), 2 weeks, 20160 min): 85.0%
Percent Chlorine Remaining ([3]; pH 7.0 (phosphate), 3 weeks, 30240 min): 79.6%
Percent Chlorine Remaining ([3]; pH 7.0 (phosphate), 4 weeks, 40320 min): 70.6%
Percent Chlorine Remaining ([3]; pH 7.0 (phosphate), 5 weeks, 50400 min): 63.4%
Percent Chlorine Remaining ([3]; pH 7.0 (phosphate), 6.14 weeks, 61891.2 min): 54.7%
Percent Chlorine Remaining ([3]; pH 9.5 (borate/NaOH), 1 week, 10080 min): 88.9%
Percent Chlorine Remaining ([3]; pH 9.5 (borate/NaOH), 2 weeks, 20160 min): 79.0%
Percent Chlorine Remaining ([3]; pH 9.5 (borate/NaOH), 3 weeks, 30240 min): 71.2%
Percent Chlorine Remaining ([3]; pH 9.5 (borate/NaOH), 4 weeks, 40320 min): 60.3%
Percent Chlorine Remaining ([3]; pH 9.5 (borate/NaOH), 5 weeks, 50400 min): 50.1%
Percent Chlorine Remaining ([3]; pH 9.5 (borate/NaOH), 6.14 weeks, 61891.2 min): 38.5%
Percent Halogen Remaining ([4]; pH 7.0, 3.0 hrs): 26.0%
Percent Halogen Remaining ([4]; pH 7.0, 5.0 hrs): 6.9%
Percent Halogen Remaining ([4]; pH 7.0, 10.0 hrs): 0.0%
Percent Halogen Remaining ([5]; pH 9.5, 0.5 hrs): 51.5%
Percent Halogen Remaining ([5]; pH 9.5, 1.0 hrs): 46.4%
Percent Halogen Remaining ([5]; pH 9.5, 2.5 hrs): 39.6%
Percent Halogen Remaining ([5]; pH 9.5, 4.2 hrs): 39.6%
Percent Halogen Remaining ([5]; pH 9.5, 7.5 hrs): 36.2%
Percent Halogen Remaining ([5]; pH 9.5, 24.0 hrs): 31.3%
Percent Halogen Remaining ([5]; pH 9.5, 76.5 hrs): 21.5%

The remaining lines, values ahead:

solubility in water [1]: 0.120 grams in 100 milliliters of water
solubility [1]: 0.72 mg/mL (≈ 2.4 mM)
SMILES: CC1(C)C(=O)N(Br)C(C)(C)N1Br [1,3-dibromo-2,2,5,5-tetramethylimidazolidin-4-one]

solubility in water [1]: 0.193 grams in 100 milliliters of water
solubility [1]: 1.02 mg/mL (≈ 3.99 mM)
SMILES: CC1(C)C(=O)N(Cl)C(C)(C)N1Br [1-bromo-3-chloro-2,2,5,5-tetramethylimidazolidin-4-one]

remaining at 23.52 h ([3]; demand-free water, pH 9.5): 91.4%
remaining at 72.24 h ([3]; demand-free water, pH 9.5): 71%
remaining at 168 h ([3]; demand-free water, pH 9.5): 36%
remaining at 336 h ([3]; demand-free water, pH 9.5): 4.8%
SMILES: CC1(C)C(=O)N(Br)C(C)(C)N1Br [Compound 4, 1,3-dibromo-2,2,5,5-tetramethylimidazolidin-4-one]
